Laboratory results taken from EPA's ToxValDB 9.5 (doi:10.2903/j.efsa.2006.51r).
Converted amounts (≈) assume the structure as drawn.

Legend:
Typhlodromus pyri = settings: not reported; other
Colinus virginianus = settings: acute; oral; diet; mortality
Oncorhynchus mykiss = settings: chronic/long-term; duration: 21 days
Daphnia magna = settings: chronic/long-term; duration: 21 days; other
Apis mellifera = settings: acute, mortality
Bibionidae = settings: chronic/long-term
Lepomis macrochirus = settings: acute; duration: 96 hours; mortality
Aphidius rhopalosiphi = assay: LR50; higher = less toxic; settings: not reported; other

SMILES: Cc1cc(C2CC2)nc(Nc2ccccc2)n1 [Cyprodinil]
- LD50 (Rattus norvegicus; acute, oral, mortality): > 2000 mg/kg
- NOAEL (Rattus norvegicus; chronic, duration: 2 years, M/F, organ weight): 3 mg/kg-day
- NOAEL (Rattus norvegicus; reproduction developmental, organ weight): 72.7 mg/kg-day
- NOAEL (Rattus norvegicus; subchronic, duration: 90 days, histopathology: nonneoplastic): 3.14 mg/kg-day
- LEL (Typhlodromus pyri): 750 g/ha
- LD50 (Anas platyrhynchos; acute, oral, unspecified, mortality): > 500 mg/kg
- NOEC (Anas platyrhynchos; reproductive): 64 mg/kg
- LC50 (Colinus virginianus): > 743 mg/kg
- NOEC (Oncorhynchus mykiss): 0.083 mg/L
- NOEC (Daphnia magna): 0.0082 mg/L
- LD50 (Apis mellifera; duration: 48 hours, dermal): > 784 µg/piece
- LD50 (Apis mellifera; oral, unspecified): > 112 µg/piece
- NOEC (Bibionidae; duration: 27 days, other): 80 mg/kg
- NOEC (Bibionidae; duration: 28 days, no effects): 0.24 mg/L
- LC50 (Tagia sp.; acute, duration: 14 days, mortality): 192 mg/kg
- NOEC (Tagia sp.; chronic/long-term, duration: 56 days, reproduction): 15000 g/ha
- LC50 (Lepomis macrochirus): 2.17 µg/mL (≈ 9.63 µM)
- LR50 (Aphidius rhopalosiphi): 750 g/ha
